Source: US8802597B2, “Herbicidal pyrimidines” (E I du Pont de Nemours and Company, priority 2003, dated 2014)

What was measured:
Type in all cases: in vivo
[1] = tested on: common chickweed (Stellaria media); assay: Test D pre/postemergence; conditions: scale 0 to 100 (100 = complete control)
Excerpt: (§1) Seeds of plant species selected from catchweed bedstraw (galium; Galium aparine), common chickweed (Stellaria media), kochia (Kochia scoparia), lambsquarters (Chenopodium album), pigweed (Amaranthus retroflexus), Russian thistle (Salsola kali), wild buckwheat (Polygonum convolvulus), wild mustard (Sinapis arvensis), winter barley (Hordeum vulgare), and wheat (Triticum aestivum) were planted and treated preemergence with test chemicals formulated in a non-phytotoxic solvent mixture which included a surfactant.
(§2) At the same time, plants selected from these crop and weed species were treated with postemergence applications of some of the test chemicals formulated in the same manner. Plants ranged in height from 2 to 18 cm (1- to 4-leaf stage) for postemergence treatments. Treated plants and controls were maintained in a controlled growth environment for 15 to 25 days after which time all species were compared to controls and visually evaluated. Plant response ratings, summarized in Table D, are based on a scale of 0 to 100 where 0 is no effect and 100 is complete control. A dash (-) response means no test result.

[2] = tested on: pigweed (Amaranthus retroflexus); assay: Test D pre/postemergence; conditions: scale 0 to 100 (100 = complete control)
Excerpt: as §1, §2

[3] = tested on: Italian ryegrass (Lolium multiflorum); assay: Test G pre/postemergence
In short: (§3)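 Visual scores from 0 (no effect) to 100 (complete control) were assigned relative to untreated controls 12 to 21 days after treatment. Compounds, formulated in a non-phytotoxic solvent mixture with surfactant, were applied preemergence to planted seed or postemergence to plants at the 1- to 4-leaf stage (2 to 18 cm).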

[4] = tested on: Surinam grass (Brachiaria decumbens); assay: Test G pre/postemergence
In short: as §3

[5] = tested on: annual bluegrass (Poa annua); assay: Test G pre/postemergence
In short: as §3

[6] = tested on: barnyardgrass (Echinochloa crus-galli); assay: Test G pre/postemergence
In short: as §3

[7] = tested on: bermudagrass (Cynodon dactylon); assay: Test G pre/postemergence
In short: as §3

[8] = tested on: downy bromegrass (Bromus tectorum); assay: Test G pre/postemergence
In short: as §3

[9] = tested on: field bindweed (Convolvulus arvensis); assay: Test G pre/postemergence
In short: as §3

[10] = tested on: guineagrass (Panicum maximum); assay: Test G pre/postemergence
In short: as §3

[11] = tested on: johnsongrass (Sorghum halepense); assay: Test G pre/postemergence
In short: as §3

[12] = tested on: tropical spiderwort (Commelina benghalensis); assay: Test G pre/postemergence
In short: as §3

[13] = Postemergence, 250 g ai/ha, scale 0 to 100
[14] = Postemergence, 500 g ai/ha, scale 0 to 100
[15] = Postemergence, 62 g ai/ha, scale 0 to 100
[16] = Postemergence, 125 g ai/ha, scale 0 to 100
[17] = Postemergence, 375 g ai/ha, scale 0 to 100
[18] = Preemergence, 62 g ai/ha, scale 0-100
[19] = Preemergence, 125 g ai/ha, scale 0-100
[20] = Preemergence, 250 g ai/ha, scale 0-100
[21] = Preemergence, 500 g ai/ha, scale 0-100
[22] = Preemergence, 500 g ai/ha, scale 0 to 100
[23] = Preemergence, 375 g ai/ha, scale 0 to 100

SMILES: CCOC(=O)c1nc(C2CC2)nc(N)c1Br [Compound 1, ethyl 6-amino-5-bromo-2-cyclopropyl-4-pyrimidinecarboxylate]
- Plant response rating, Chickweed ([1]; Postemergence, 16 g ai/ha): 65
- Plant response rating, Chickweed ([1]; Postemergence, 31 g ai/ha): 65
- Plant response rating, Chickweed ([1]; Postemergence, 62 g ai/ha): 65
- Plant response rating, Chickweed ([1]; Postemergence, 125 g ai/ha): 85
- Plant response rating, Chickweed ([1]; Preemergence, 16 g ai/ha): 60
- Plant response rating, Chickweed ([1]; Preemergence, 31 g ai/ha): 65
- Plant response rating, Chickweed ([1]; Preemergence, 62 g ai/ha): 70
- Plant response rating, Chickweed ([1]; Preemergence, 125 g ai/ha): 75
- Plant response rating, Pigweed ([2]; Postemergence, 16 g ai/ha): 60
- Plant response rating, Pigweed ([2]; Postemergence, 31 g ai/ha): 100
- Plant response rating, Pigweed ([2]; Postemergence, 62 g ai/ha): 100
- Plant response rating, Pigweed ([2]; Postemergence, 125 g ai/ha): 100
- Plant response rating, Pigweed ([2]; Preemergence, 16 g ai/ha): 60
- Plant response rating, Pigweed ([2]; Preemergence, 31 g ai/ha): 70
- Plant response rating, Pigweed ([2]; Preemergence, 62 g ai/ha): 95
- Plant response rating, Pigweed ([2]; Preemergence, 125 g ai/ha): 100
- Plant response rating, Ryegrass, Italian [3, 13]: 40
- Plant response rating, Ryegrass, Italian [3, 14]: 40
- Plant response rating, Ryegrass, Italian [3, 15]: 0
- Plant response rating, Ryegrass, Italian [3, 16]: 10
- Plant response rating, Ryegrass, Italian [3, 17]: 40
- Plant response rating, Ryegrass, Italian [3, 18]: 0
- Plant response rating, Ryegrass, Italian [3, 19]: 10
- Plant response rating, Ryegrass, Italian [3, 20]: 30
- Plant response rating, Ryegrass, Italian [3, 21]: 95
- Plant response rating, Ryegrass, Italian [3, 22]: 95
- Plant response rating, Surinam Grass [4, 13]: 85
- Plant response rating, Surinam Grass [4, 14]: 90
- Plant response rating, Surinam Grass [4, 15]: 30
- Plant response rating, Surinam Grass [4, 16]: 60
- Plant response rating, Surinam Grass [4, 17]: 90
- Plant response rating, Surinam Grass [4, 18]: 95
- Plant response rating, Surinam Grass [4, 19]: 95
- Plant response rating, Surinam Grass [4, 20]: 95
- Plant response rating, Surinam Grass [4, 21]: 95
- Plant response rating, Surinam Grass [4, 22]: 100
- Plant response rating, Bluegrass [5, 13]: 40
- Plant response rating, Bluegrass [5, 14]: 50
- Plant response rating, Bluegrass [5, 15]: 20
- Plant response rating, Bluegrass [5, 16]: 30
- Plant response rating, Bluegrass [5, 17]: 50
- Plant response rating, Bluegrass [5, 18]: 10
- Plant response rating, Bluegrass [5, 19]: 30
- Plant response rating, Bluegrass [5, 20]: 85
- Plant response rating, Bluegrass [5, 22]: 85
- Plant response rating, Barnyardgrass [6, 13]: 70
- Plant response rating, Barnyardgrass [6, 14]: 75
- Plant response rating, Barnyardgrass [6, 15]: 60
- Plant response rating, Barnyardgrass [6, 16]: 60
- Plant response rating, Barnyardgrass [6, 17]: 70
- Plant response rating, Barnyardgrass [6, 18]: 0
- Plant response rating, Barnyardgrass [6, 19]: 20
- Plant response rating, Barnyardgrass [6, 20]: 50
- Plant response rating, Barnyardgrass [6, 22]: 70
- Plant response rating, Barnyardgrass [6, 23]: 70
- Plant response rating, Bermudagrass [7, 13]: 40
- Plant response rating, Bermudagrass [7, 14]: 50
- Plant response rating, Bermudagrass [7, 15]: 25
- Plant response rating, Bermudagrass [7, 16]: 25
- Plant response rating, Bermudagrass [7, 17]: 40
- Plant response rating, Bermudagrass [7, 18]: 10
- Plant response rating, Bermudagrass [7, 19]: 20
- Plant response rating, Bermudagrass [7, 20]: 30
- Plant response rating, Bermudagrass [7, 22]: 70
- Plant response rating, Bermudagrass [7, 23]: 70
- Plant response rating, Bromegrass, Downy [8, 13]: 60
- Plant response rating, Bromegrass, Downy [8, 14]: 80
- Plant response rating, Bromegrass, Downy [8, 15]: 30
- Plant response rating, Bromegrass, Downy [8, 16]: 30
- Plant response rating, Bromegrass, Downy [8, 17]: 70
- Plant response rating, Bromegrass, Downy [8, 18]: 0
- Plant response rating, Bromegrass, Downy [8, 19]: 20
- Plant response rating, Bromegrass, Downy [8, 20]: 95
- Plant response rating, Bromegrass, Downy [8, 22]: 95
- Plant response rating, Bromegrass, Downy [8, 23]: 95
- Plant response rating, Bindweed, Field [9, 13]: 95
- Plant response rating, Bindweed, Field [9, 14]: 95
- Plant response rating, Bindweed, Field [9, 15]: 90
- Plant response rating, Bindweed, Field [9, 16]: 95
- Plant response rating, Bindweed, Field [9, 17]: 95
- Plant response rating, Bindweed, Field [9, 18]: 95
- Plant response rating, Bindweed, Field [9, 19]: 100
- Plant response rating, Bindweed, Field [9, 20]: 100
- Plant response rating, Bindweed, Field [9, 22]: 100
- Plant response rating, Bindweed, Field [9, 23]: 100
- Plant response rating, Guineagrass [10, 13]: 95
- Plant response rating, Guineagrass [10, 14]: 95
- Plant response rating, Guineagrass [10, 15]: 60
- Plant response rating, Guineagrass [10, 16]: 70
- Plant response rating, Guineagrass [10, 18]: 70
- Plant response rating, Guineagrass [10, 19]: 70
- Plant response rating, Guineagrass [10, 20]: 85
- Plant response rating, Guineagrass [10, 22]: 100
- Plant response rating, Guineagrass [10, 23]: 100
- Plant response rating, Johnsongrass [11, 13]: 95
- Plant response rating, Johnsongrass [11, 14]: 95
- Plant response rating, Johnsongrass [11, 15]: 70
- Plant response rating, Johnsongrass [11, 16]: 70
- Plant response rating, Johnsongrass [11, 17]: 95
- Plant response rating, Johnsongrass [11, 18]: 20
- Plant response rating, Johnsongrass [11, 19]: 40
- Plant response rating, Johnsongrass [11, 20]: 60
- Plant response rating, Johnsongrass [11, 21]: 75
- Plant response rating, Johnsongrass [11, 22]: 75
- Plant response rating, Spiderwort [12, 13]: 95
- Plant response rating, Spiderwort [12, 14]: 95
- Plant response rating, Spiderwort [12, 15]: 95
- Plant response rating, Spiderwort [12, 16]: 95
- Plant response rating, Spiderwort [12, 17]: 95
- Plant response rating, Spiderwort [12, 18]: 70
- Plant response rating, Spiderwort [12, 19]: 100
- Plant response rating, Spiderwort [12, 20]: 100
- Plant response rating, Spiderwort [12, 21]: 100
- Plant response rating, Spiderwort [12, 22]: 100

SMILES: CCOC(=O)c1nc(C2CC2)nc(N)c1Cl [Compound 4, ethyl 6-amino-5-chloro-2-cyclopropyl-4-pyrimidinecarboxylate]
- Plant response rating, Chickweed ([1]; Postemergence, 16 g ai/ha): 65
- Plant response rating, Chickweed ([1]; Postemergence, 31 g ai/ha): 100
- Plant response rating, Chickweed ([1]; Postemergence, 62 g ai/ha): 100
- Plant response rating, Chickweed ([1]; Postemergence, 125 g ai/ha): 100
- Plant response rating, Chickweed ([1]; Preemergence, 16 g ai/ha): 65
- Plant response rating, Chickweed ([1]; Preemergence, 31 g ai/ha): 70
- Plant response rating, Chickweed ([1]; Preemergence, 62 g ai/ha): 85
- Plant response rating, Chickweed ([1]; Preemergence, 125 g ai/ha): 100
- Plant response rating, Pigweed ([2]; Postemergence, 16 g ai/ha): 85
- Plant response rating, Pigweed ([2]; Postemergence, 31 g ai/ha): 100
- Plant response rating, Pigweed ([2]; Postemergence, 62 g ai/ha): 100
- Plant response rating, Pigweed ([2]; Postemergence, 125 g ai/ha): 100
- Plant response rating, Pigweed ([2]; Preemergence, 16 g ai/ha): 70
- Plant response rating, Pigweed ([2]; Preemergence, 31 g ai/ha): 90
- Plant response rating, Pigweed ([2]; Preemergence, 62 g ai/ha): 100
- Plant response rating, Pigweed ([2]; Preemergence, 125 g ai/ha): 100
- Plant response rating, Ryegrass, Italian [3, 18]: 30
- Plant response rating, Ryegrass, Italian [3, 19]: 60
- Plant response rating, Ryegrass, Italian [3, 20]: 100
- Plant response rating, Ryegrass, Italian [3, 22]: 100
- Plant response rating, Surinam Grass [4, 18]: 30
- Plant response rating, Surinam Grass [4, 19]: 60
- Plant response rating, Surinam Grass [4, 20]: 80
- Plant response rating, Surinam Grass [4, 22]: 95
- Plant response rating, Bluegrass [5, 18]: 10
- Plant response rating, Bluegrass [5, 19]: 60
- Plant response rating, Bluegrass [5, 20]: 80
- Plant response rating, Bluegrass [5, 22]: 100
- Plant response rating, Barnyardgrass [6, 18]: 50
- Plant response rating, Barnyardgrass [6, 19]: 70
- Plant response rating, Barnyardgrass [6, 20]: 80
- Plant response rating, Barnyardgrass [6, 22]: 100
- Plant response rating, Bermudagrass [7, 18]: 20
- Plant response rating, Bermudagrass [7, 19]: 90
- Plant response rating, Bermudagrass [7, 20]: 95
- Plant response rating, Bermudagrass [7, 22]: 100
- Plant response rating, Bromegrass, Downy [8, 18]: 30
- Plant response rating, Bromegrass, Downy [8, 19]: 70
- Plant response rating, Bromegrass, Downy [8, 20]: 100
- Plant response rating, Bromegrass, Downy [8, 22]: 100
- Plant response rating, Bindweed, Field [9, 18]: 100
- Plant response rating, Bindweed, Field [9, 19]: 100
- Plant response rating, Bindweed, Field [9, 20]: 100
- Plant response rating, Bindweed, Field [9, 22]: 100
- Plant response rating, Guineagrass [10, 18]: 95
- Plant response rating, Guineagrass [10, 19]: 95
- Plant response rating, Guineagrass [10, 20]: 100
- Plant response rating, Guineagrass [10, 22]: 100
- Plant response rating, Johnsongrass [11, 18]: 60
- Plant response rating, Johnsongrass [11, 19]: 75
- Plant response rating, Johnsongrass [11, 20]: 85
- Plant response rating, Johnsongrass [11, 22]: 95
- Plant response rating, Spiderwort [12, 18]: 100
- Plant response rating, Spiderwort [12, 19]: 100
- Plant response rating, Spiderwort [12, 20]: 100
- Plant response rating, Spiderwort [12, 22]: 100
